Source: patent publication US20100197727A1, “Quinoline Derivatives as Antibacterial Agents” (priority 2005, published 2010)

Key:
Assay in all cases: Microtitre plate assay, IC90 determination
Type in all cases: cell-based
Details in all cases: 90% inhibitory concentration for bacterial growth
[1] = system: Enterococcus faecalis (ATCC14506)
Description: (§1) The bacteria used in this study were grown overnight in flasks containing 100 ml Mueller-Hinton Broth (Becton Dickinson—cat. no. 275730) in sterile de-ionized water, with shaking, at 37° C. Stocks (0.5 ml/tube) were stored at −70° C. until use. Bacteria titrations were performed in microtiter plates and colony forming units (CFUs) were determined In general, an inoculum level of approximately 100 CFUs was used for susceptibility testing.
(§2) Flat-bottom, sterile 96-well plastic microtiter plates were filled with 180 μl of sterile deionized water, supplemented with 0.25% BSA. Subsequently, stock solutions (7.8× final test concentration) of compounds were added in 45 μl volumes in column 2. Serial five-fold dilutions (45 μl in 180 μl ) were made directly in the microtiter plates from column 2 to reach column 11. Untreated control samples with (column 1) and without (column 12) inoculum were included in each microtiter plate. Depending on the bacteria type, approximately 10 to 60 CFU per well of bacteria inoculum (100 TCID50), in a volume of 100 μl in 2.8× Mueller-Hinton broth medium, was added to the rows A to H, except column 12. The same volume of broth medium without inoculum was added to column 12 in row A to H. The cultures were incubated at 37° C. for 24 hours under a normal atmosphere (incubator with open air valve and continuous ventilation). At the end of incubation, one day after inoculation, the bacterial growth was quantitated fluorometrically. Therefore resazurin (0.6 mg/ml) was added in a volume of 20 μl to all wells 3 hours after inoculation, and the plates were re-incubated overnight. A change in colour from blue to pink indicated the growth of bacteria. The fluorescence was read in a computer-controlled fluorometer (Cytofluor Biosearch) at an excitation wavelength of 530 nm and an emission wavelength of 590 nm. The % growth inhibition achieved by the compounds was calculated according to standard methods. The IC90 (expressed in μg/ml) was defined as the 90% inhibitory concentration for bacterial growth.

[2] = system: Listeria monocytogenes (ATCC49594)
Description: as §1, §2

[3] = system: Staphylococcus aureus (ATCC25923)
Description: as §1, §2

[4] = system: Streptococcus pyogens (ATCC8668)
Description: as §1, §2

[5] = system: Streptococcus mutans (ATCC33402)
Description: as §1, §2

[6] = system: Staphylococcus aureus (ATCC29213)
Description: as §1, §2

[7] = system: Enterococcus faecalis (ATCC29212)
Description: as §1, §2

[8] = system: methicilline resistant Staphylococcus aureus (MRSA) (a clinical isolate from the University of Antwerp)
Description: as §1, §2

[9] = system: Staphylococcus aureus (ATCC43300)
Description: as §1, §2

[10] = system: Bacillus subtilis (ATCC43639)
Description: as §1, §2

[11] = system: Streptococcus pneumoniae (ATCC6305)
Description: as §1, §2

[12] = system: Escherichia coli (ATCC25922)
Description: as §1, §2

[13] = system: Pseudomonas aeruginosa (ATCC27853)
Description: as §1, §2

[14] = system: Escherichia coli (ATCC35218)
Description: as §1, §2

| Structure (SMILES) | IC90 SPY 8668 [4] | IC90 STA 29213 [6] | IC90 EFA 29212 [7] | IC90 SPN 6305 [11] | IC90 PAE 27853 [13] | also measured |
| --- | --- | --- | --- | --- | --- | --- |
| COc1nc2ccc(Br)cc2cc1C(c1ccccc1)C(O)(CC[N+](C)(C)C)c1ccccc1.[I-] (single isomer, unassigned) [Compound 10] | 1.3 µg/mL | 14.5 µg/mL | 5.8 µg/mL | 16.3 µg/mL |  | IC90 EFA 14506 [1]: 12.9 µg/mL; IC90 LMO 49594 [2]: 1.2 µg/mL; IC90 STA 25923 [3]: 11.5 µg/mL; IC90 SMU 33402 [5]: 10.3 µg/mL; IC90 STA RMETH [8]: 8.2 µg/mL; IC90 STA 43300 [9]: 5.8 µg/mL; IC90 BSU 43639 [10]: 10.3 µg/mL |
| COc1nc2ccc(Br)cc2cc1C(c1ccccc1)C(O)(CC[N+](C)(C)C)c1ccccc1.[I-] (single isomer, unassigned) [Compound 57] | 12.9 µg/mL | 12.9 µg/mL | 12.9 µg/mL | 16.3 µg/mL |  | IC90 EFA 14506 [1]: 12.9 µg/mL; IC90 LMO 49594 [2]: 2.6 µg/mL; IC90 STA 25923 [3]: 12.9 µg/mL; IC90 SMU 33402 [5]: 12.9 µg/mL; IC90 STA RMETH [8]: 12.9 µg/mL; IC90 STA 43300 [9]: 12.9 µg/mL; IC90 BSU 43639 [10]: 2.6 µg/mL |
| COc1nc2ccc(Br)cc2cc1C(c1ccccc1)C(O)(CC[N+](C)(C)C)c1cccc2ccccc12.[I-] (single isomer, unassigned) [Compound 121] | 3.5 µg/mL | 0.4 µg/mL | 2.8 µg/mL | 3.5 µg/mL | 13.9 µg/mL | IC90 EFA 14506 [1]: 2.8 µg/mL; IC90 ECO 25922 [12]: 12.4 µg/mL; IC90 LMO 49594 [2]: 0.5 µg/mL; IC90 STA 25923 [3]: 2.2 µg/mL; IC90 SMU 33402 [5]: 2.8 µg/mL; IC90 STA RMETH [8]: 2.2 µg/mL; IC90 STA 43300 [9]: 3.5 µg/mL; IC90 BSU 43639 [10]: 2.8 µg/mL |
| CCCC[N+](C)(C)CCC(O)(c1cccc2ccccc12)C(c1ccccc1)c1cc2cc(Br)ccc2nc1OC.[I-] (single isomer, unassigned) [Compound C] |  | 0.4 µg/mL |  |  |  |  |
| COc1nc2ccc(Br)cc2cc1C(c1ccccc1)C(O)(CCc1ccccc1)CC[N+](C)(C)C.[I-] (single isomer, unassigned) [Compound F] |  | 2.1 µg/mL |  |  |  |  |
| COc1nc2ccc(Br)cc2cc1C(c1ccccc1)C(O)(CCC[N+](C)(C)C)c1cccc2ccccc12.[I-] (single isomer, unassigned) [Compound G] |  | 0.4 µg/mL |  |  |  |  |
| COc1nc2ccc(Br)cc2cc1C(c1ccccc1)C(O)(CCCC[N+](C)(C)C)c1ccc2ccccc2c1.[I-] (single isomer, unassigned) [Compound H] |  | 0.5 µg/mL |  |  |  |  |
| COc1nc2ccc(Br)cc2cc1C(c1ccccc1)C(O)(CCCC[N+](C)(C)C)c1ccccc1.[I-] (single isomer, unassigned) [Compound K] |  | 2.1 µg/mL |  |  |  |  |
| CSc1nc2ccc(Br)cc2cc1C(c1ccccc1)C(O)(CCCC[N+](C)(C)C)c1ccccc1.[I-] (single isomer, unassigned) [Compound L] | 0.4 µg/mL | 2.2 µg/mL | 2.2 µg/mL | 2.2 µg/mL | 2.2 µg/mL | IC90 LMO 49594 [2]: 2.2 µg/mL; IC90 SMU 33402 [5]: 0.4 µg/mL; IC90 ECO 35218 [14]: 11 µg/mL; IC90 BSU 43639 [10]: 2.2 µg/mL |
| COc1nc2ccc(Br)cc2cc1C(c1ccccc1)C(O)(CC[N+](C)(C)C)c1ccsc1.[I-] (single isomer, unassigned) [Compound M] | 8.34 µg/mL | 1.7 µg/mL |  | 8.34 µg/mL |  |  |
| COc1nc2ccc(Br)cc2cc1C(c1ccc(Cl)cc1)C(O)(CC[N+](C)(C)C)c1ccccc1.[I-] (single isomer, unassigned) [Compound N] | 1.75 µg/mL | 1.8 µg/mL | 1.75 µg/mL | 1.75 µg/mL | 9.87 µg/mL | IC90 ECO 35218 [14]: 17.55 µg/mL |
| COc1nc2ccc(Br)cc2cc1C(c1ccccc1)C(O)(CC[N+](C)(C)C)c1cccc(F)c1.[I-] (single isomer, unassigned) [Compound O] | 1.7 µg/mL | 1.9 µg/mL | 8.53 µg/mL | 1.7 µg/mL |  |  |
| COc1nc2ccc(Br)cc2cc1C(c1ccccc1)C(O)(CC[N+](C)(C)C)c1ccc2ccccc2c1.[I-] (single isomer, unassigned) [Compound Q] | 1.8 µg/mL | 1.8 µg/mL | 1.8 µg/mL | 1.8 µg/mL | 4.53 µg/mL |  |
| COc1nc2ccc(Br)cc2cc1C(c1ccccc1)C(O)(CCC[N+](C)(C)C)c1ccc2ccccc2c1.[I-] (single isomer, unassigned) [Compound S] | 1.85 µg/mL | 0.4 µg/mL | 1.85 µg/mL | 0.47 µg/mL | 1.85 µg/mL |  |
| CSc1nc2ccc(Br)cc2cc1C(c1ccccc1)C(O)(CC[N+](C)(C)C)c1ccccc1.[I-] (single isomer, unassigned) [Compound T] | 1.7 µg/mL | 1.7 µg/mL | 3.8 µg/mL | 1.7 µg/mL | 8.5 µg/mL |  |
| COc1nc2ccc(Br)cc2cc1C(c1ccccc1)C(O)(CCCC[N+]1(C)CCCCC1)c1ccccc1.[I-] (single isomer, unassigned) [Compound U] | 1.86 µg/mL | 1.9 µg/mL | 1.86 µg/mL | 2.09 µg/mL | 9.33 µg/mL |  |
| COc1nc2ccc(Br)cc2cc1C(c1ccccc1)C(O)(CCc1ccccc1)CC[N+](C)(C)C.[I-] (single isomer, unassigned) [E] |  | 2.1 µg/mL |  |  |  |  |
| COc1nc2ccc(Br)cc2cc1C(c1ccccc1)C(O)(CCCC[N+](C)(C)C)c1ccc2ccccc2c1.[I-] (single isomer, unassigned) [I] |  | 2.9 µg/mL |  |  |  |  |
| COc1nc2ccc(Br)cc2cc1C(c1ccccc1)C(O)(CCCC[N+](C)(C)C)c1ccccc1.[I-] (single isomer, unassigned) [J] |  | 2.1 µg/mL |  |  |  |  |
| COc1nc2ccc(Br)cc2cc1C(c1ccccc1)C(O)(CCC[N+](C)(C)C)c1ccc2ccccc2c1.[I-] (single isomer, unassigned) [R] | 0.74 µg/mL | 0.4 µg/mL | 1.17 µg/mL | 0.46 µg/mL | 2.07 µg/mL | IC90 ECO 35218 [14]: 9.27 µg/mL |
